Patent US20020034421A1, “Remediation of contaminates including low bioavailability hydrocarbons” (priority 2000, published 2002)
≈ marks a conversion by molar mass, not a printed value. Where “and” joins values, the source holds several entries; their conditions need not be identical. Equal entries are not always repeated.

Experiments:
[1] = Crystal solubility at 25° C.; cited from earlier work
[2] = Fenton reaction degradation of PAHs in Quakertown silt loam; settings: for % reduced / degraded by Fenton reaction: ratio 10:1 ([H2O2:FeSO4]=[2.0 g:0.2 g]), 24-h oxidation, model soil
[3] = Hydrogen peroxide oxidation of PAHs at near neutral pH (modified Fenton's reagent) in Quakertown silt loam
[4] = at 20° C.; cited from earlier work
[5] = Logarithm of the octanol: water partition coefficient; cited from earlier work
[6] = Fenton reaction degradation of PAHs in MGP soil; settings: FR: Fenton's reagent treatment for 24 hours
Excerpt: Coal tar-contaminated soil was collected from a former manufactured gas plant site in New Jersey. The soil was classified as loamy sand, consisting of 78% sand, 11% silt, and 11% clay.
Fenton's reagent was generated by mixing hydrogen peroxide (30%, w/v) with FeSO4.7H2O in varying ratios to determine the optimum conditions for the degradation of PAHs. The sequence of reagent addition seemed to be important to ensure that the reaction occurred efficiently, as well as to ensure that the reaction could be safely maintained. Desired amounts of ferrous sulfate were added to 10 g of PAHs-spiked soil or 5 g of MGP soil in 20 mL of distilled water containing 0.02% HgCl2. To the soil slurry, hydrogen peroxide was introduced gradually by pipetting (ca. 0.3 g each with 10-min intervals), and the reaction was allowed to occur for 24 h on an orbital platform shaker at room temperature.
The soil slurry used for either biodegradation or Fenton-type reaction, or both, was transferred to a 50-mL Teflon centrifuge tube and centrifuged at 18,600× g for 15 min. After removing the supernatant, 10 mL each of dichloromethane and acetone were added to the soil and the soil-solvent suspension was shaken (200 rpm) for 48 h at 30° C. for the extraction of PAHs. The tube was then centrifuged at 18,600× g for 15 min and the solvent mixture was transferred to a 50-mL test tube. After removing excess water (upper layer; ca. 2 mL) by pipetting, 4 g of anhydrous sodium sulfate were mixed with the PAHs-containing solvent to remove residual water completely from solvent. […] The extract was then concentrated to 1 to 2 mL using an evaporator (Büchi Rotavapor; Buchler Instruments Inc., Fort Lee, N.J.) for further analysis.
The extract was passed through a 0.45-μm PTFE syringe filter to remove any particulates present and analyzed by a gas chromatograph (GC) equipped with a flame ionization detector (Varian Star 3500; Varian Chromatograph Systems, Walnut, Calif.). The GC was installed with a Rtx-5 silica column crossbonded with 5% diphenyl and 95% dimethylpolysiloxane (30 m×0.53 mm inner diameter; Restek Corporation, Bellefonte, Pa.). The oven temperature was programmed at 40° C. for 6 min, followed by a linear increase of 10° C. per minute to 300° C., and then the temperature was held for 15 min. Injector and detector temperatures were maintained at 300° C. Two microliters of the extract were injected and nitrogen was used as a carrier gas.

[7] = Hydrogen Peroxide (2g), 100 mg Ferrous Sulfate, Quakertown silt loam
[8] = Hydrogen Peroxide (2g), 200 mg Ferrous Sulfate, Data from TABLE 3
[9] = Hydrogen Peroxide (2g), No FeSO4, Quakertown silt loam
[10] = ratio 5:1, [H2O2:FeSO4] = [1.0 g:0.2 g], 24 h, Quakertown silt loam
[11] = ratio 10:1 (footnote d), [H2O2:FeSO4] = [0.2 g:0.2 g] [sic], 24 h, Quakertown silt loam
[12] = ratio 10:1 (footnote e), [H2O2:FeSO4] = [1.0 g:0.1 g], 24 h, Quakertown silt loam
[13] = ratio head 1.1, [H2O2:FeSO4] = [0.2 g:0.2 g], 24 h, Quakertown silt loam
[14] = mFR + gallic acid, pH ca. 6.0-6.5

c1ccc2cc3ccccc3cc2c1 [Anthracene, anthracene]
Solubility in water [1]: 0.07 µg/mL (≈ 0.393 µM) | % remaining in soil [2, 7]: 76.3b % | % remaining in soil [2, 8]: 61.9c % | % remaining in soil [2, 9]: 92.7a % | % remaining in soil [2, 10]: 75.9b % | % reduced / degraded by Fenton reaction [2]: about 40% | % remaining in soil [2, 11]: 61.9c % | % remaining in soil [2, 12]: 79.3b % | % remaining in soil [2, 13]: 100a % | % remaining in soil ([3]; FR + CaCO3, pH ca. 6.0-6.5): 78.1a % | % remaining in soil ([3]; mFR + catechol, pH ca. 6.0-6.5): 70.8ab % | % remaining in soil [3, 14]: 66.8b % | Vapor Pressure [4]: 1.9 × 10^−4 | Log Kow [5]: 4.45

c1ccc2c(c1)Cc1ccccc1-2 [Fluorene, fluorene]
% remaining in soil [6]: 10.3a % | Vapor Pressure [4]: 1.3 × 10^−2 | Log Kow [5]: 4.18

c1cc2ccc3cccc4ccc(c1)c2c34 [Pyrene, pyrene]
% remaining in soil [2, 7]: 16.3b % | % remaining in soil [2, 8]: 15.5c % | % remaining in soil [2, 9]: 88.3a % | % remaining in soil [2, 10]: 51.0b % | % remaining in soil [2, 11]: 15.5c % | % remaining in soil [2, 12]: 26.3d % | % remaining in soil [2, 13]: 95.4a % | % remaining in soil ([3]; FR + CaCO3, pH ca. 6.0-6.5): 77.1a % | % remaining in soil ([3]; mFR + catechol, pH ca. 6.0-6.5): 58.3b % | % remaining in soil [3, 14]: 58.9b % | % remaining in soil [6]: 53.4a % | Vapor Pressure [4]: 6.8 × 10^−7 | Log Kow [5]: 5.32

c1ccc2c(c1)ccc1ccccc12 [Phenanthrene, phenanthrene]
Solubility in water [1]: 1.0 µg/mL (≈ 5.61 µM) | % remaining in soil [6]: 16.8a % | Vapor Pressure [4]: 6.8 × 10^−4 | Log Kow [5]: 4.46

c1ccc2ccccc2c1 [Naphthalene, naphthalene]
Solubility in water [1]: 32 µg/mL (≈ 250 µM) | Vapor Pressure [4]: 4.9 × 10^−2

c1ccc2c(c1)ccc1c3ccccc3ccc21 [Chrysene, chrysene]
Solubility in water [1]: 0.006 µg/mL (≈ 0.0263 µM) | % remaining in soil [2, 7]: 72.6a % | % remaining in soil [2, 8]: 88.1b % | % remaining in soil [2, 9]: 77.0ab % | % remaining in soil [2, 10]: 87.0b % | % reduced / degraded by Fenton reaction [2]: ~12% | % remaining in soil [2, 11]: 88.1b % | % remaining in soil [2, 12]: 98.2c % | % remaining in soil [2, 13]: 100a % | % remaining in soil ([3]; FR + CaCO3, pH ca. 6.0-6.5): 100a % | % remaining in soil ([3]; mFR + catechol, pH ca. 6.0-6.5): 100a % | % remaining in soil [3, 14]: 91.1b % | % remaining in soil [6]: 50.8b % | Vapor Pressure [4]: 6.3 × 10^−7 | Log Kow [5]: 5.61

c1ccc2c(c1)cc1ccc3cccc4ccc2c1c34 [Benzo(a)pyrene, benzo(a)pyrene]
% remaining in soil [2, 7]: 10.5b % | % remaining in soil [2, 8]: 3.3c % | % remaining in soil [2, 9]: 73.2a % | % remaining in soil [2, 10]: 35.3b % | % remaining in soil [2, 11]: 3.3% and 3.3c % | % remaining in soil [2, 12]: 60.9d % | % remaining in soil [2, 13]: 84.8a % | % remaining in soil ([3]; FR + CaCO3, pH ca. 6.0-6.5): 73.1a % | % remaining in soil ([3]; mFR + catechol, pH ca. 6.0-6.5): 54.8b % | % remaining in soil [3, 14]: 49.6b %
